{"source": "patent US20070128217A1", "about": "(priority 2003, published 2007)", "key": {"[1]": {"system": "antibodies in sera from SARS patients (sera 1a, 1b, 2, 6, 37, 62, London, SARS-yellow, SARS-green)", "format": "binding, human", "design": "Binding of serum 6 to linear peptides of protein X1 of SARS-CoV Urbani / Binding of serum 37 to linear peptides of protein X1 of SARS-CoV Urbani / Binding of serum 6 to looped/cyclic peptide (PEPSCAN-ELISA) / Binding of serum 37 to looped/cyclic peptide (PEPSCAN-ELISA) / Binding of serum 37 to looped/cyclic peptides of protein X1 of SARS-CoV Urbani / Binding of serum 6 to linear peptides of protein X2 / Binding of serum 37 to linear peptides of protein X2 / Binding of serum 37 to looped/cyclic peptides of protein X2 of SARS-CoV Urbani / Binding of serum 6 to linear peptides of protein M of SARS-CoV Urbani / Binding of serum 37 to linear peptides of protein M of SARS-CoV Urbani / Binding of serum 6 to looped/cyclic peptides of protein M of SARS-CoV Urbani / Binding of serum 37 to looped/cyclic peptides of protein M of SARS-CoV Urbani / Binding of serum 6 to linear peptides of protein X3 of SARS-CoV Urbani / Binding of serum 37 to linear peptides of protein X3 of SARS-CoV Urbani / Binding of serum 37 to looped/cyclic peptides of protein X3 of SARS-CoV Urbani / Binding of serum 6 to linear peptides of protein X4 of SARS-CoV Urbani / Binding of serum 37 to linear peptides of protein X4 of SARS-CoV Urbani / Binding of serum 37 to looped/cyclic peptides of protein X4 of SARS-CoV Urbani / Binding of serum 6 to linear peptides of protein X5 of SARS-CoV Urbani / Binding of serum 37 to linear peptides of protein X5 of SARS-CoV Urbani / Binding of serum 37 to looped/cyclic peptides of protein X5 of SARS-CoV Urbani / Binding of serum 6 to linear peptides of protein N of SARS-CoV Urbani / Binding of serum 37 to linear peptides of protein N of SARS-CoV Urbani / Binding of serum 6 to linear peptide (PEPSCAN-ELISA) / Binding of serum 1a to looped/cyclic peptides of protein N of SARS-CoV Urbani / Binding of serum 1b to looped/cyclic peptides of protein N of SARS-CoV Urbani / Binding of serum 2 to looped/cyclic peptides of protein N of SARS-CoV Urbani / Binding of serum 6 to looped/cyclic peptides of protein N of SARS-CoV Urbani / Binding of serum 37 to looped/cyclic peptides of protein N of SARS-CoV Urbani / Binding of serum 62 to looped/cyclic peptides of protein N of SARS-CoV Urbani / Binding of serum London to looped/cyclic peptides of protein N of SARS-CoV Urbani / Binding of serum SARS-green to looped/cyclic peptides of protein N of SARS-CoV Urbani: unit not given here"}, "[2]": {"system": "control sera (pooled serum of ten healthy LUMC hospital workers; commercial negative donor pooled serum from the Dutch bloodbank)", "format": "binding, human", "design": "Binding of Control serum LUMC to linear peptides / Binding of Control serum Blood-bank to linear peptides / Binding of Control serum LUMC to looped peptides / Binding of Control Serum Blood-Bank to Looped peptides / Binding of Control serum LUMC to linear peptides of the protein M of SARS-CoV Urbani / Binding of Control serum Blood-bank to linear peptides of the protein M of SARS-CoV Urbani / Binding of Control serum LUMC to looped peptides of the protein M of SARS-CoV Urbani / Binding of Control Serum Blood-Bank to Looped peptides of the protein M of SARS-CoV Urbani: unit not given here"}, "[3]": {"system": "rabbit serum obtained by immunizing a rabbit with the SARS-CoV strain Frankfurt 1", "format": "binding", "design": "Binding of a rabbit serum to linear peptides / Binding of a rabbit serum to looped peptides / Rabbit serum linear peptides / Rabbit serum looped peptides / Binding of a rabbit serum to linear peptides of protein N of SARS-CoV Urbani (Rabbit serum linear peptides) / Binding of a rabbit serum to looped/cyclic peptides of protein N of SARS-CoV Urbani (Rabbit serum looped peptides): unit not given here"}}, "data": [{"sequence": "SQRVGTDSGFAAYNR", "values": [{"measurement": "Binding of serum 1a to linear peptides of protein M of SARS-CoV Urbani", "setting": "[1]", "value": 0.8}, {"measurement": "Binding of serum 1a to looped/cyclic peptides of protein M of SARS-CoV Urbani", "setting": "[1]", "value": 0.5}, {"measurement": "Binding of serum 1b to linear peptides of protein M of SARS-CoV Urbani", "setting": "[1]", "value": 0.6}, {"measurement": "Binding of serum 1b to looped/cyclic peptides of protein M of SARS-CoV Urbani", "setting": "[1]", "value": 0.4}, {"measurement": "Binding of serum 2 to linear peptides of protein M of SARS-CoV Urbani", "setting": "[1]", "value": 0.4}, {"measurement": "Binding of serum 2 to looped/cyclic peptides of protein M of SARS-CoV Urbani", "setting": "[1]", "value": 0.7}, {"measurement": "Binding of serum 6 to linear peptides of protein M of SARS-CoV Urbani", "setting": "[1]", "value": 0.6}, {"measurement": "Binding of serum 6 to looped/cyclic peptides of protein M of SARS-CoV Urbani", "setting": "[1]", "value": 0.6}, {"measurement": "Binding of serum 37 to linear peptides of protein M of SARS-CoV Urbani", "setting": "[1]", "value": 0.5}, {"measurement": "Binding of serum 37 to looped/cyclic peptides of protein M of SARS-CoV Urbani", "setting": "[1]", "value": 0.2}, {"measurement": "Binding of serum 62 to linear peptides of protein M of SARS-CoV Urbani", "setting": "[1]", "value": 0.4}, {"measurement": "Binding of serum 62 to looped/cyclic peptides of protein M of SARS-CoV Urbani", "setting": "[1]", "value": 0.5}, {"measurement": "Binding of serum London to linear peptides of protein M of SARS-CoV Urbani", "setting": "[1]", "value": 0.4}, {"measurement": "Binding of serum London to looped/cyclic peptides of protein M of SARS-CoV Urbani", "setting": "[1]", "value": 0.2}, {"measurement": "Binding of serum SARS-green to linear peptides of protein M of SARS-CoV Urbani", "setting": "[1]", "value": 0.5}, {"measurement": "Binding of serum SARS-green to looped/cyclic peptides of protein M of SARS-CoV Urbani", "setting": "[1]", "value": 0.4}, {"measurement": "Binding of serum SARS-yellow to linear peptides of protein M of SARS-CoV Urbani", "setting": "[1]", "value": 0.5}, {"measurement": "Binding of serum SARS-yellow to looped/cyclic peptides of protein M of SARS-CoV Urbani", "setting": "[1]", "value": 0.6}, {"measurement": "Binding of Control Serum Blood-Bank to Looped peptides of the protein M of SARS-CoV Urbani", "setting": "[2]", "value": 0.7}, {"measurement": "Binding of Control serum Blood-bank to linear peptides of the protein M of SARS-CoV Urbani", "setting": "[2]", "value": 0.9}, {"measurement": "Binding of Control serum LUMC to linear peptides of the protein M of SARS-CoV Urbani", "setting": "[2]", "value": 1.0}, {"measurement": "Binding of Control serum LUMC to looped peptides of the protein M of SARS-CoV Urbani", "setting": "[2]", "value": 0.6}, {"measurement": "Rabbit serum linear peptides", "setting": "[3]", "value": 0.2}, {"measurement": "Rabbit serum looped peptides", "setting": "[3]", "value": 0.1}]}, {"sequence": "LVFLWLLWPVTLACF", "values": [{"measurement": "Binding of serum 1a to linear peptides of protein M of SARS-CoV Urbani", "setting": "[1]", "value": 0.7}, {"measurement": "Binding of serum 1a to looped/cyclic peptides of protein M of SARS-CoV Urbani", "setting": "[1]", "value": 0.6}, {"measurement": "Binding of serum 1b to linear peptides of protein M of SARS-CoV Urbani", "setting": "[1]", "value": 0.5}, {"measurement": "Binding of serum 1b to looped/cyclic peptides of protein M of SARS-CoV Urbani", "setting": "[1]", "value": 0.5}, {"measurement": "Binding of serum 2 to linear peptides of protein M of SARS-CoV Urbani", "setting": "[1]", "value": 0.4}, {"measurement": "Binding of serum 2 to looped/cyclic peptides of protein M of SARS-CoV Urbani", "setting": "[1]", "value": 0.7}, {"measurement": "Binding of serum 6 to linear peptides of protein M of SARS-CoV Urbani", "setting": "[1]", "value": 0.6}, {"measurement": "Binding of serum 6 to looped/cyclic peptides of protein M of SARS-CoV Urbani", "setting": "[1]", "value": 0.6}, {"measurement": "Binding of serum 37 to linear peptides of protein M of SARS-CoV Urbani", "setting": "[1]", "value": 0.6}, {"measurement": "Binding of serum 37 to looped/cyclic peptides of protein M of SARS-CoV Urbani", "setting": "[1]", "value": 0.7}, {"measurement": "Binding of serum 62 to linear peptides of protein M of SARS-CoV Urbani", "setting": "[1]", "value": 0.8}, {"measurement": "Binding of serum 62 to looped/cyclic peptides of protein M of SARS-CoV Urbani", "setting": "[1]", "value": 0.7}, {"measurement": "Binding of serum London to linear peptides of protein M of SARS-CoV Urbani", "setting": "[1]", "value": 0.7}, {"measurement": "Binding of serum London to looped/cyclic peptides of protein M of SARS-CoV Urbani", "setting": "[1]", "value": 0.2}, {"measurement": "Binding of serum SARS-green to linear peptides of protein M of SARS-CoV Urbani", "setting": "[1]", "value": 0.2}, {"measurement": "Binding of serum SARS-green to looped/cyclic peptides of protein M of SARS-CoV Urbani", "setting": "[1]", "value": 0.3}, {"measurement": "Binding of serum SARS-yellow to linear peptides of protein M of SARS-CoV Urbani", "setting": "[1]", "value": 0.1}, {"measurement": "Binding of serum SARS-yellow to looped/cyclic peptides of protein M of SARS-CoV Urbani", "setting": "[1]", "value": 0.4}, {"measurement": "Binding of Control Serum Blood-Bank to Looped peptides of the protein M of SARS-CoV Urbani", "setting": "[2]", "value": 0.7}, {"measurement": "Binding of Control serum Blood-bank to linear peptides of the protein M of SARS-CoV Urbani", "setting": "[2]", "value": 0.5}, {"measurement": "Binding of Control serum LUMC to linear peptides of the protein M of SARS-CoV Urbani", "setting": "[2]", "value": 0.2}, {"measurement": "Binding of Control serum LUMC to looped peptides of the protein M of SARS-CoV Urbani", "setting": "[2]", "value": 0.7}, {"measurement": "Rabbit serum linear peptides", "setting": "[3]", "value": 0.3}, {"measurement": "Rabbit serum looped peptides", "setting": "[3]", "value": 0.3}]}, {"sequence": "CDIKDLPKEITVATS", "values": [{"measurement": "Binding of serum 1a to linear peptides of protein M of SARS-CoV Urbani", "setting": "[1]", "value": 0.6}, {"measurement": "Binding of serum 1a to looped/cyclic peptides of protein M of SARS-CoV Urbani", "setting": "[1]", "value": 0.6}, {"measurement": "Binding of serum 1b to linear peptides of protein M of SARS-CoV Urbani", "setting": "[1]", "value": 0.3}, {"measurement": "Binding of serum 1b to looped/cyclic peptides of protein M of SARS-CoV Urbani", "setting": "[1]", "value": 0.3}, {"measurement": "Binding of serum 2 to linear peptides of protein M of SARS-CoV Urbani", "setting": "[1]", "value": 0.3}, {"measurement": "Binding of serum 2 to looped/cyclic peptides of protein M of SARS-CoV Urbani", "setting": "[1]", "value": 0.6}, {"measurement": "Binding of serum 6 to linear peptides of protein M of SARS-CoV Urbani", "setting": "[1]", "value": 0.3}, {"measurement": "Binding of serum 6 to looped/cyclic peptides of protein M of SARS-CoV Urbani", "setting": "[1]", "value": 0.5}, {"measurement": "Binding of serum 37 to linear peptides of protein M of SARS-CoV Urbani", "setting": "[1]", "value": 0.5}, {"measurement": "Binding of serum 37 to looped/cyclic peptides of protein M of SARS-CoV Urbani", "setting": "[1]", "value": 0.6}, {"measurement": "Binding of serum 62 to linear peptides of protein M of SARS-CoV Urbani", "setting": "[1]", "value": 0.7}, {"measurement": "Binding of serum 62 to looped/cyclic peptides of protein M of SARS-CoV Urbani", "setting": "[1]", "value": 0.6}, {"measurement": "Binding of serum London to linear peptides of protein M of SARS-CoV Urbani", "setting": "[1]", "value": 0.3}, {"measurement": "Binding of serum London to looped/cyclic peptides of protein M of SARS-CoV Urbani", "setting": "[1]", "value": 0.2}, {"measurement": "Binding of serum SARS-green to linear peptides of protein M of SARS-CoV Urbani", "setting": "[1]", "value": 0.2}, {"measurement": "Binding of serum SARS-green to looped/cyclic peptides of protein M of SARS-CoV Urbani", "setting": "[1]", "value": 0.4}, {"measurement": "Binding of serum SARS-yellow to linear peptides of protein M of SARS-CoV Urbani", "setting": "[1]", "value": 0.0}, {"measurement": "Binding of serum SARS-yellow to looped/cyclic peptides of protein M of SARS-CoV Urbani", "setting": "[1]", "value": 0.6}, {"measurement": "Binding of Control Serum Blood-Bank to Looped peptides of the protein M of SARS-CoV Urbani", "setting": "[2]", "value": 0.6}, {"measurement": "Binding of Control serum Blood-bank to linear peptides of the protein M of SARS-CoV Urbani", "setting": "[2]", "value": 0.4}, {"measurement": "Binding of Control serum LUMC to linear peptides of the protein M of SARS-CoV Urbani", "setting": "[2]", "value": 0.2}, {"measurement": "Binding of Control serum LUMC to looped peptides of the protein M of SARS-CoV Urbani", "setting": "[2]", "value": 0.7}, {"measurement": "Rabbit serum linear peptides", "setting": "[3]", "value": 0.4}, {"measurement": "Rabbit serum looped peptides", "setting": "[3]", "value": 0.6}]}]}
